Test results: patent US20060223763A1, “C-glycoside compounds for stimulating the synthesis of glycosaminoglycans” (L'OREAL S.A., priority 2000, published 2006)
“And” between values parts separate entries of the source, which are not always exact repeats. Equal entries are not always repeated.

Test system: normal human dermal fibroblast cultures
Test: incorporation of radioactive glucosamine into the matrix neosynthesized by fibroblast cultures (GAG/hyaluronic acid synthesis)
Assay type: cell-based
Experimental: The study was performed by measuring the incorporation of radioactive glucosamine into the matrix neosynthesized by normal human dermal fibroblast cultures. The incorporation of radioactive glucosamine indicated a specific neosynthesis of glycosaminoglycans via incorporation of the acetylated form of this glucosamine.
The fibroblast cultures were prepared according to the standard methods of cell culturing, i.e., in MEM/M199 medium sold by Gibco, in the presence of sodium bicarbonate (1.87 mg/ml), L-glutamine (2 mM), penicillin (50 IU/ml) and 10% foetal calf serum (Gibco).
The test was performed on a cell culture at 80% confluence, on 96-well plates. The C-glycoside derivative at concentrations of 0.1 to 30 mM was placed in contact with the cells for 48 hours. Labeling with radioactive glucosamine (D-[6-H^3]-glucosamine, Amersham TRK398 (814 Gbq/mmol, 22 Ci/mmol)) was performed for 24 hours.
The level of radioactive glucosamine incorporated was measured at the end of the test by adsorption of the anionic molecules onto Q-sepharose beads followed by desorption of the sparingly and moderately anionic molecules with 6M urea plus 0.2M NaCl. Once washed, the radioactivity incorporated into the highly cationic molecules remaining on the support was counted.
The results were evaluated relative to a control consisting of cells that have not been treated with the C-glycoside derivative of formula (I).
A positive control (TGFβ at 10 ng/ml) known to stimulate GAG synthesis was introduced into the test as positive reference.

[1] = 0.1 mM, 48 hours contact, labeling 24 hours
[2] = 0.3 mM, 48 hours contact, labeling 24 hours
[3] = 1 mM, 48 hours contact, labeling 24 hours
[4] = concentrations of 0.3, 1 and 3 mM
[5] = TGFβ at 10 ng/ml, positive control, two values given
[6] = 0.5 mM, 48 hours contact, labeling 24 hours
[7] = 3 mM, 48 hours contact, labeling 24 hours
[8] = 0.4 mM, 48 hours contact, labeling 24 hours
[9] = 2 mM, 48 hours contact, labeling 24 hours
[10] = 10 mM, 48 hours contact, labeling 24 hours

Compound | % (relative to untreated control) [1] | VALUE (radioactive glucosamine incorporated) [1] | % (relative to untreated control) [2] | VALUE (radioactive glucosamine incorporated) [2] | % (relative to untreated control) [3] | VALUE (radioactive glucosamine incorporated) [3] | effect on incorporation of radioactive glucosamine [4] | other results
CC(C[C@@H]1OC[C@@H](O)[C@H](O)[C@H]1O)NCCCO (stereo partly drawn) [1-[2-(3-Hydroxypropylamio)Propyl]-C-β-D-Xylopyranose] | 110% | 11656 cpm | 109% | 11585 cpm | 140% | 14832 cpm | stimulate the incorporation of radioactive glucosamine | –
TGFβ: positive control (TGFβ at 10 ng/ml) known to stimulate GAG synthesis | – | – | – | – | – | – | – | % (relative to untreated control) [5]: 348% and 454%; VALUE (radioactive glucosamine incorporated) [5]: 27124 cpm and 34865 cpm
O=C[C@H](O)[C@@H](O)[C@H](O)CO [D-Xylose, reference compound] | 102% | 6586 cpm | – | – | – | – | – | % (relative to untreated control) [6]: 86%; VALUE (radioactive glucosamine incorporated) [6]: 4063 cpm
O=C(C[C@@H]1OC[C@@H](O)[C@H](O)[C@H]1O)c1ccccc1 [1-Phenyl-2-(C-β-D-Xylopyranoside)Ethan-1-One] | 120% | 10113 cpm | 102% | 8545 cpm | 95% | 7941 cpm | stimulate the incorporation of radioactive glucosamine | –
CC(O)C[C@@H]1OC[C@@H](O)[C@H](O)[C@H]1O (stereo partly drawn) [C-β-D-Xylopyranoside-2-hydroxypropane, C-β-D-xylopyranoside-2-hydroxypropane] | – | – | 139% | 11634 cpm | 169% | 14209 cpm | – | % (relative to untreated control) [7]: 218%; VALUE (radioactive glucosamine incorporated) [7]: 18271 cpm; effect on incorporation of radioactive glucosamine (concentrations of 0.1, 0.3 and 1 mM): stimulates the incorporation of radioactive glucosamine
CC(=O)C[C@@H]1OC[C@@H](O)[C@H](O)[C@H]1O [C-β-D-Xylopyranoside-n-propan-2-one, C-β-D-xylopyranoside-n-propan-2-one] | – | – | – | – | – | – | – | % (relative to untreated control) [8]: 141%; VALUE (radioactive glucosamine incorporated) [8]: 8564 cpm; % (relative to untreated control) [9]: 131%; VALUE (radioactive glucosamine incorporated) [9]: 11014 cpm; % (relative to untreated control) [10]: 161%; VALUE (radioactive glucosamine incorporated) [10]: 12507 cpm and 9811 cpm; effect on incorporation of radioactive glucosamine (concentrations of 0.4, 2 and 10 mM): stimulates the incorporation of radioactive glucosamine
